{"source": "patent US8481600B2", "about": "“Formulation of aspirin that is stable and showing minimal hydrolysis for parenteral administration for the treatment of cardiovascular and other disease states” (Academic Pharmaceuticals, Inc., priority 2007, dated 2013)", "key": {"[1]": {"test": "HPLC analysis of ASA solutions for hydrolysis to salicylic acid (stability on storage)", "type": "physicochemical", "protocol": "(§1) A 10 μl solution of this formulation is tested using the following HPLC procedure for analysis. A constant-flow pump, Thermo-Finnigan Spectra-System P2000 was used to deliver eluent solvent at a rate of 1 ml/min to a column, Luna, 5μ, C8(2), 100 A, […] (Phenomenex, Calif.). The eluent solvent system was NaH2PO4 (0.025 M): Na2HPO4 (0.25 M): MeOH (25:25:50 V/V) pH adjusted to 3.2 with either phosphoric acid or concentrated HCL. Methanolic solutions of aspirin and salicylic acid 10 μl (concentration of 1 mg/ml) were injected onto the column. The eluted compounds were detected using a Spectra 200 programmable UV wavelength detector and Thermo-Finnigan Chrome Jet integrator. The wavelength of detector was either […]. Under these conditions, retention times for aspirin and hydrolysis product, salicylic acid was approximately 1.75 minutes and 3.34 minutes respectively. […]"}, "[2]": {"settings": "25° C.; cited from earlier work"}, "[3]": {"test": "Solution compatibility: NNDMA solution of ASA diluted with diluents, HPLC", "type": "physicochemical", "settings": "for Assay of Compounds: Aspirin / Assay of Compounds: Salicylic Acid: ASA in NNDMA diluted with D5W, RT", "protocol": "In another series of experiments, 1 ml of the solution containing only NNDMA (Table 3) was diluted with 100 ml of diluents such as 1. distilled H2O, 2. Ringers lactate solution, 3. D5W and 4. normal saline and then the pH of these solutions were adjusted to 6.5 with 1 N NaOH. […] After 12 hours of storage, however, the hydrolysis of ASA was observed (up to 5% within 24 hours). […] One skilled in the art will recognize that modifications may be made in the persent invention without deviating from the spirit or scope of this invention which is illustrated further by the specific examples of dissolution attempts described herein and these examples are not to be construed as limiting the scope of this invention.\nas §1"}, "[4]": {"settings": "a. H2O (2.0 ml), 1-Propanol (0.5 ml), Tween 20 (0.5 ml), within 1 hr"}, "[5]": {"settings": "aspirin dissolved in water (2 ml), upon mixing (FIG. 1)"}, "[6]": {"settings": "glycerin (1 ml), 1-propanol (3 ml), Tween 80 (0.2 ml), upon mixing (FIG. 2)"}, "[7]": {"settings": "1 ml NNDMA solution diluted in D5W, after 12 hours (FIG. 6)"}}, "note": "“And” between values parts separate entries of the source, which are not always exact repeats. Identical values can stand only once."}
{"compound": "CC(=O)Oc1ccccc1C(=O)O", "note": "[ASA, aspirin]", "values": [{"measurement": "Purity of ASA in solution", "setting": "[1]; 1. N,N-Dimethylacetamide (NNDMA)", "result": ">99", "unit": "%"}, {"measurement": "Purity of ASA in solution", "setting": "[1]; 2. NNDMA, Glycerol (0.1 in 10 ml), Tween 20 (0.1 in 10 ml)", "result": "Purity >99%"}, {"measurement": "Purity of ASA in solution", "setting": "[1]; 3. NNDMA, Glycerol (0.1 in 10 ml), Tween 40 (0.1 in 10 ml)", "result": "Purity >99%"}, {"measurement": "Purity of ASA in solution", "setting": "[1]; 4. NNDMA, Glycerol (0.1 in 10 ml), Tween 60 (0.1 in 10 ml)", "result": "Purity >99%"}, {"measurement": "Purity of ASA in solution", "setting": "[1]; 5. NNDMA, Glycerol (0.1 in 10 ml), Tween 80 (0.1 in 10 ml)", "result": "Purity >99%"}, {"measurement": "Purity of ASA in solution", "setting": "[1]; 6. NNDMA, Glycerol (0.1 in 10 ml)", "result": "Purity >99%"}, {"measurement": "Purity of ASA in solution", "setting": "[1]; 7. NNDMA, Glycerol (0.1 in 10 ml), DMSO (1-2%)", "result": "Purity >99%"}, {"measurement": "Purity of ASA in solution", "setting": "[1]; 8. NNDMA, DMSO (1.2%)", "result": "Purity >99%"}, {"measurement": "Aspirin (HPLC purity)", "setting": "[1]; ASA in NNDMA, 40° C., 6 months", "result": "97.5% and 97.9%-98.6%"}, {"measurement": "Aspirin (HPLC purity)", "setting": "[1]; ASA in NNDMA, 40° C., 6 months, listed as aspirin", "result": 98, "unit": "%"}, {"measurement": "Aspirin (HPLC purity)", "setting": "[1]; ASA in NNDMA, RT, 6 months", "result": 99.4, "unit": "%"}, {"measurement": "Salicylic Acid / hydrolysis product", "setting": "[1]; ASA in NNDMA, RT, 6 months", "result": 0.3, "unit": "%"}, {"measurement": "stability of solution of ASA in NNDMA", "setting": "[1]; Example 1: 1.0 gm of aspirin in 2 mL NNDMA", "result": "stable and resists hydrolysis"}, {"measurement": "solution stability on pH adjustment", "setting": "[1]; NNDMA solutions of Table 3, pH adjusted in the range of 1.5-6.0", "result": "without changing solution stability"}, {"measurement": "aspirin purity (HPLC)", "setting": "[1]; NNDMA, glycerol and Tween 20, RT, 6 months (FIG. 5)", "result": 99, "unit": "%"}, {"measurement": "HPLC Results: aspirin", "setting": "[1]; [4]", "result": "~95", "unit": "% aspirin"}, {"measurement": "HPLC Results: salicylic acid", "setting": "[1]; [4]", "result": "~5", "unit": "%"}, {"measurement": "amount of aspirin present", "setting": "[1]; all 8 NNDMA solutions of Table 3, room temperature, 6 months", "result": "greater than 98%"}, {"measurement": "hydrolysis on storage", "setting": "[1]; all 8 NNDMA solutions of Table 3, stored at room temperature", "result": "no significant amount of hydrolysis could be detected"}, {"measurement": "aspirin, HPLC peak 1 area", "setting": "[1]; [5]", "result": 95.4, "unit": "%"}, {"measurement": "hydrolysis product, HPLC peak 2", "setting": "[1]; [5]", "result": 4.9, "unit": "%"}, {"measurement": "HPLC Results: salicylic acid", "setting": "[1]; b. H2O (2.0 ml), 1-Propanol (0.5 ml), Tween 40, within 1 hr", "result": "~5", "unit": "%"}, {"measurement": "HPLC Results: salicylic acid", "setting": "[1]; c. H2O (2.0 ml), 1-Propanol (0.5 ml), Tween 60, within 1 hr", "result": "~5", "unit": "%"}, {"measurement": "HPLC Results: salicylic acid", "setting": "[1]; d. H2O (2.0 ml), 1-Propanol (0.5 ml), Tween 80, within 1 hr", "result": "~5", "unit": "%"}, {"measurement": "HPLC Results: salicylic acid", "setting": "[1]; e. H2O (2.0 ml), 1-Propanol (0.5 ml), PEG 300, within 1 hr", "result": "~5", "unit": "%"}, {"measurement": "HPLC Results: salicylic acid", "setting": "[1]; f. H2O (2.0 ml), 1-Propanol (0.5 ml), PEG 400, within 1 hr", "result": "~5", "unit": "%"}, {"measurement": "HPLC Results: salicylic acid", "setting": "[1]; g. H2O (2.0 ml), 1-Propanol (0.5 ml), PEG 600, within 1 hr", "result": "~5", "unit": "%"}, {"measurement": "aspirin, HPLC peak 1", "setting": "[1]; [6]", "result": 94.3, "unit": "%"}, {"measurement": "hydrolysis product, HPLC peak 2", "setting": "[1]; [6]", "result": 5.7, "unit": "%"}, {"measurement": "HPLC Results: salicylic acid", "setting": "[1]; h. H2O (2.0 ml), 1-Propanol (0.5 ml), Glycerol, within 1 hr", "result": "~5", "unit": "%"}, {"measurement": "HPLC Results: salicylic acid", "setting": "[1]; i. H2O (2 ml), +DMSO (1-2%), Tween 20, within 1 hr", "result": "~5", "unit": "%"}, {"measurement": "HPLC Results: salicylic acid", "setting": "[1]; j. H2O (2 ml), +DMSO (1-2%), Tween 40, within 1 hr", "result": "~5", "unit": "%"}, {"measurement": "HPLC Results: salicylic acid", "setting": "[1]; k. H2O (2 ml), +DMSO (1-2%), Tween 60, within 1 hr", "result": "~5", "unit": "%"}, {"measurement": "HPLC Results: salicylic acid", "setting": "[1]; l. H2O (2 ml), +DMSO (1-2%), Tween 80, within 1 hr", "result": "~5", "unit": "%"}, {"measurement": "HPLC Results: salicylic acid", "setting": "[1]; m. Glycerine (1 ml), 1-Propanol (3 ml), Tween 80 (0.2 ml), within 1 hr", "result": "~5", "unit": "%"}, {"measurement": "HPLC Results: salicylic acid", "setting": "[1]; n. Glycerine (1 ml), 1,2 propanediol (3 ml), Tween 80 (0.2 ml), within 1 hr", "result": "~5", "unit": "%"}, {"measurement": "HPLC Results: salicylic acid", "setting": "[1]; o. Glycerine (1 ml), PEG 300 (3 ml), Tween 80 (0.2 ml), within 1 hr", "result": "~5", "unit": "%"}, {"measurement": "HPLC Results: salicylic acid", "setting": "[1]; p. Glycerine (1 ml), PEG 400 (3 ml), Tween 80 (0.2 ml), within 1 hr", "result": "~5", "unit": "%"}, {"measurement": "HPLC Results: salicylic acid", "setting": "[1]; q. Glycerine (1 ml), PEG 600 (3 ml), Tween 80 (0.2 ml), within 1 hr", "result": "~5", "unit": "%"}, {"measurement": "stability of clear solutions in NNDMA on storage", "setting": "[1]; room temperature and 40° C., 6 months", "result": "without the formation of turbidity or a precipitate and without significant hydrolysis of aspirin"}, {"measurement": "salicylic acid (hydrolysis product) in solutions of ASA", "setting": "[1]; the 17 solvent systems of Table 2, within one hour, aspirin 50-75 mg/ml, pH 1.5 to 6.8", "result": "≥ 5", "unit": "%"}, {"measurement": "stability in N,N-dimethylacetamide", "setting": "[1]; up to 500 mg/ml, stored at 40° C. for up to 6 months", "result": "without undergoing significant hydrolysis"}, {"measurement": "solubility in water", "setting": "[2]", "result": "poor solubility"}, {"measurement": "HPLC peak 2", "setting": "[3]; [7]", "result": 0.3, "unit": "%"}, {"measurement": "HPLC peak 3", "setting": "[3]; [7]", "result": 0.4, "unit": "%"}, {"measurement": "aspirin purity, HPLC peak 1", "setting": "[3]; 1 ml NNDMA solution diluted in distilled water and glucose (D5W), after 12 hours (FIG. 6)", "result": "95% and 94.8%"}, {"measurement": "appearance of diluted solutions", "setting": "[3]; 1 ml NNDMA solution in 100 ml distilled H2O, Ringers lactate, D5W or normal saline, pH 6.5, after several days", "result": "remained clear"}, {"measurement": "hydrolysis of ASA", "setting": "[3]; 1 ml NNDMA solution in 100 ml distilled H2O, Ringers lactate, D5W or normal saline, pH 6.5, up to 12 hours of storage", "result": "< 1", "unit": "%"}, {"measurement": "hydrolysis of ASA", "setting": "[3]; 1 ml NNDMA solution in 100 ml distilled H2O, Ringers lactate, D5W or normal saline, pH 6.5, within 24 hours", "result": "up to 5%"}, {"measurement": "Assay of Compounds: Aspirin", "setting": "[3]; up to 12 hours", "result": ">99", "unit": "%"}, {"measurement": "Assay of Compounds: Salicylic Acid", "setting": "[3]; up to 12 hours", "result": "<1", "unit": "%"}, {"measurement": "Assay of Compounds: Aspirin", "setting": "[3]; up to 24 hours", "result": "94.7-95.3%"}, {"measurement": "Assay of Compounds: Salicylic Acid", "setting": "[3]; up to 24 hours", "result": "Max. ~6%"}]}
